The values that follow come from US20080039629A1, “Benzothniazole compositions and their use as ubiquition ligation inhibitors” (RIGEL PHARMACEUTICALS, INC., priority 2003, published 2008).

This assay deals with T1, E1 and His-E2 Ubch10 (Homo sapiens, UniProt P22314).
T1 construct: host or cells: E. coli (His-Ubch10); Sf9 insect cells (E1)
T1 sequence (P22314 1-1058): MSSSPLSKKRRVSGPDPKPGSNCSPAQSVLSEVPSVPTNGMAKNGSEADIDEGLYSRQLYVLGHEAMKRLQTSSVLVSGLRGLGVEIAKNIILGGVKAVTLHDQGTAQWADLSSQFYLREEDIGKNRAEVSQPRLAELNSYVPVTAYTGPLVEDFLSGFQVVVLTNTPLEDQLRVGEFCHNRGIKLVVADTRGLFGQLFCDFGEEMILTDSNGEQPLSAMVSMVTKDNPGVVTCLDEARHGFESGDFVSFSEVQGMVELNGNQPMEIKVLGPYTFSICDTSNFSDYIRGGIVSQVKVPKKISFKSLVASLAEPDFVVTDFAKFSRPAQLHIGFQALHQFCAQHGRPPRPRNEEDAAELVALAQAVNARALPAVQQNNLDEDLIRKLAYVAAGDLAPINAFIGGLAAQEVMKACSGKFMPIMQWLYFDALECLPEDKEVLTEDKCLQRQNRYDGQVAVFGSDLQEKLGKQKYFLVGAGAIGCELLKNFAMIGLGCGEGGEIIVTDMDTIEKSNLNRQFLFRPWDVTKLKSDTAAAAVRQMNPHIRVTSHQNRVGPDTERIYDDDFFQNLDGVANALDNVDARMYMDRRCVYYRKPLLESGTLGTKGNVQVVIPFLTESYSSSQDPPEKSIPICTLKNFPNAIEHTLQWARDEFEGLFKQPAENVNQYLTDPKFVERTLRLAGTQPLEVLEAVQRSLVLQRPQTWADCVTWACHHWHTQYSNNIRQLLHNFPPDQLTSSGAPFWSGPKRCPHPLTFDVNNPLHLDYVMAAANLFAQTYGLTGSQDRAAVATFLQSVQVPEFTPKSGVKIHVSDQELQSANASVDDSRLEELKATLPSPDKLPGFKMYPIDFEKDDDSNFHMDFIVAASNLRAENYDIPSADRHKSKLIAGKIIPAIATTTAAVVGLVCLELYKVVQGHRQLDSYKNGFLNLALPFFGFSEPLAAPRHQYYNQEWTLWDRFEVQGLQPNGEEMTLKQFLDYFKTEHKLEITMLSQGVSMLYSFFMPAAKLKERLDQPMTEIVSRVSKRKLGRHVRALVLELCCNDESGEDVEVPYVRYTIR
Description: E1 to E2 transfer assay, His-E2 Ubch10, 1.0 μM ATP (low ATP). It counts as biochemical. Particulars: Table 5, ATP inhibition properties; inhibition measured using IC50 values. Summed up:
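His-Ubch10 (20 ng/well), E1 (10 ng/well) and Flag-ubiquitin (100 ng) reacted 1 h at room temperature on nickel plates in 62.5 mM Tris pH 7.5, 0.75 mM DTT, 1.0 μM ATP with inhibitor. E2-ubiquitin complex detected by anti-Flag/HRP luminescence; IC50 determined.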

Regarding `CCOc1ccc2nc(NC(=O)c3ccc(Cl)c(Cl)c3)sc2c1` [Compound 96, 3,4-dichloro-N-(6-ethoxybenzo[d]thiazol-2-yl)benzamide], the UBC10 entry is recorded as “++ (++ indicates inhibition at 50 μM or or less)”.

Take `COc1ccc2nc(NC(=O)NC34CC5CC(CC(C5)C3)C4)sc2c1` [Compound 97, N-1-adamantyl-N′-(6-methoxy-1,3-benzothiazol-2-yl)urea]: the UBC10 entry is recorded as “++ (++ indicates inhibition at 50 μM or or less)”.

Regarding `COc1ccc2nc(NC(=O)Nc3ccccc3)sc2c1` [Compound 98, 1-(6-methoxybenzo[d]thiazol-2-yl)-3-phenylurea], the UBC10 entry is listed as “−− (−− indicates marginal or no inhibition detected with this assay)”.

In the case of `COc1ccc2nc(NC(=O)Nc3ccc(Cl)cc3)sc2c1` [Compound 99, 1-(4-chlorophenyl)-3-(6-methoxybenzo[d]thiazol-2-yl)urea], the UBC10 result was “−− (−− indicates marginal or no inhibition detected with this assay)”.

Consider `COc1ccc2nc(NC(=O)Nc3cccc(F)c3)sc2c1` [Compound 100, 1-(3-fluorophenyl)-3-(6-methoxybenzo[d]thiazol-2-yl)urea], for which the UBC10 result was “++ (++ indicates inhibition at 50 μM or or less)”.

For `COc1ccc2nc(NC(=O)c3ccc(C)cc3C)sc2c1` [Compound 101, N-(6-methoxybenzo[d]thiazol-2-yl)-2,4-dimethyibenzamide], the UBC10 result was “++ (++ indicates inhibition at 50 μM or or less)”.

`COc1ccc2nc(NC(=O)c3sccc3C)sc2c1` [Compound 103, N-(6-methoxybenzo[d]thiazol-2-yl)-3-methylthiophene-2-carboxamide]: the UBC10 result is listed as “++ (++ indicates inhibition at 50 μM or or less)”.

Take `COc1ccc2nc(NC(=O)c3sccc3Cl)sc2c1` [Compound 104, 3-chloro-N-(6-methoxybenzo[d]thiazol-2-yl)thiophene-2-carboxamide]: the UBC10 result was “−− (−− indicates marginal or no inhibition detected with this assay)”.

On to `COc1ccc(OC)c(NC(=O)Nc2nc3ccc(OC)cc3s2)c1` [Compound 120, 1-(2,5-dimethoxyphenyl)-3-(6-methoxybenzo[d]thiazol-2-yl)urea], for which the UBC10 result is given as “++ (++ indicates inhibition at 50 μM or or less)”.

For `COc1ccc2nc(NC(=O)Nc3cccc(Cl)c3Cl)sc2c1` [Compound 124, 1-(2,3-dichlorophenyl)-3-(6-methoxybenzo[d]thiazol-2-yl)urea], the UBC10 entry is on record as “−− (−− indicates marginal or no inhibition detected with this assay)”.

As to `CCOC(=O)c1ccc(NC(=O)Nc2nc3ccc(OC)cc3s2)cc1` [Compound 126], the UBC10 result is reported as “−− (−− indicates marginal or no inhibition detected with this assay)”.

In the case of `CCOC(=O)c1ccc(NC(=O)Nc2nc3ccc(OCC)cc3s2)cc1` [Compound 136, ethyl 4-(3-(6-ethoxybenzo[d]thiazol-2-yl)ureido)benzoate], the UBC10 entry is on record as “−− (−− indicates marginal or no inhibition detected with this assay)”.

For `COc1ccc2nc(NC(=O)Nc3ccc(C#N)cc3)sc2c1` [Compound 137, 1-(4-cyanophenyl)-3-(6-methoxybenzo[d]thiazol-2-yl)urea], the UBC10 entry is given as “−− (−− indicates marginal or no inhibition detected with this assay)”.

Turning to `COc1ccc2nc(NC(=O)c3cccs3)sc2n1` [Compound 138, N-(5-methoxythiazolo[5,4-b]pyridin-2-yl)thiophene-2-carboxamide], the UBC10 result was “++ (++ indicates inhibition at 50 μM or or less)”.

`COc1ccc2nc(NC(=O)c3ccccc3)sc2n1` [Compound 139, N-(5-methoxythiazolo[5,4-b]pyridin-2-yl)benzamide]: the UBC10 entry is “−− (−− indicates marginal or no inhibition detected with this assay)”.

As for `COc1ccc2nc(NC(=O)c3ccc(Cl)cc3Cl)sc2n1` [Compound 140, 2,4-dichloro-N-(5-methoxythiazolo[5,4-b]pyridin-2-yl)benzamide], the UBC10 entry is “−− (−− indicates marginal or no inhibition detected with this assay)”.

In the case of `COc1ccc2nc(NC(=O)c3cccc(F)c3)sc2n1` [Compound 141, 3-fluoro-N-(5-methoxythiazolo[5,4-b]pyridin-2-yl)benzamide], the UBC10 entry is reported as “++ (++ indicates inhibition at 50 μM or or less)”.

As for `COc1ccc2nc(NC(=O)c3cccc(Cl)c3)sc2n1` [Compound 142, 3-chloro-N-(5-methoxythiazolo[5,4-b]pyridin-2-yl)benzamide], the UBC10 result was “++ (++ indicates inhibition at 50 μM or or less)”.

Regarding `COc1ccc2nc(NC(=O)c3sccc3Cl)sc2n1` [Compound 144, 3-chloro-N-(5-methoxythiazolo[5,4-b]pyridin-2-yl)thiophene-2-carboxamide], the UBC10 result is recorded as “−− (−− indicates marginal or no inhibition detected with this assay)”.

Regarding `COc1ccc2nc(NC(=O)c3c(F)cccc3F)sc2n1` [Compound 145, 2,6-difluoro-N-(5-methoxythiazolo[5,4-b]pyridin-2-yl)benzamide], the UBC10 result is recorded as “−− (−− indicates marginal or no inhibition detected with this assay)”.

`COc1ccc2nc(NC(=O)c3ccc(F)c(F)c3)sc2n1` [Compound 146, 3,4-difluoro-N-(5-methoxythiazolo[5,4-b]pyridin-2-yl)benzamide]: the UBC10 entry is “++ (++ indicates inhibition at 50 μM or or less)”.

Regarding `COc1ccc2nc(NC(=O)c3ccc(C(F)(F)F)cc3)sc2n1` [Compound 147, N-(5-methoxythiazolo[5,4-b]pyridin-2-yl)-4-(trifluoromethyl)benzamide], the UBC10 result is “−− (−− indicates marginal or no inhibition detected with this assay)”.

Turning to `COc1ccc2nc(NC(=O)c3ccc(NC(C)=O)cc3)sc2n1` [Compound 149, 4-acetamido-N-(5-methoxythiazolo[5,4-b]pyridin-2-yl)benzamide], the UBC10 result is on record as “++ (++ indicates inhibition at 50 μM or or less)”.

With `COc1ccc2nc(NC(=O)c3ccc([N+](=O)[O-])cc3)sc2n1` [Compound 150, N-(5-methoxythiazolo[5,4-b]pyridin-2-yl)-4-nitrobenzamide], the UBC10 entry is reported as “++ (++ indicates inhibition at 50 μM or or less)”.

As for `COc1ccc(C(=O)Nc2nc3ccc(OC)nc3s2)cc1` [Compound 151, 4-methoxy-N-(5-methoxythiazolo[5,4-b]pyridin-2-yl)benzamide], the UBC10 result is on record as “++ (++ indicates inhibition at 50 μM or or less)”.

`COc1ccc2nc(NC(=O)c3ccc(C)cc3)sc2n1` [Compound 152, N-(5-methoxythiazolo[5,4-b]pyridin-2-yl)-4-methylbenzamide]: the UBC10 entry is “++ (++ indicates inhibition at 50 μM or or less)”.

For the compound `COc1ccc2nc(NC(=O)c3ccco3)sc2n1` [Compound 153, N-(5-methoxythiazolo[5,4-b]pyridin-2-yl)furan-2-carboxamide], the UBC10 entry is reported as “++ (++ indicates inhibition at 50 μM or or less)”.

As for `COc1ccc2nc(NC(=O)c3ccc(F)cc3)sc2n1` [Compound 154, 4-fluoro-N-(5-methoxythiazolo[5,4-b]pyridin-2-yl)benzamide], the UBC10 result was “++ (++ indicates inhibition at 50 μM or or less)”.

As to `COc1ccc2nc(NC(=O)c3ccc(Cl)cc3)sc2n1` [Compound 155, 4-chloro-N-(5-methoxythiazolo[5,4-b]pyridin-2-yl)benzamide], the UBC10 entry is on record as “++ (++ indicates inhibition at 50 μM or or less)”.
